The values that follow come from US10059674B2, “Design, synthesis, and biological evaluation of 1-methyl-1, 4-dihyrdoindeno[1,2-C]pyrazole analogues as potential anticaner agents targeting tubulin colchicine binding site” (ACT PHARMA CO., LTD., priority 2016, dated 2018).

Read-outs that look alike come from different tables or passages of the source.

For data set [1], the system named is MDCK cells.
Data set [2] is described as follows: MDCK cell permeability test. As to conditions: dog, MDCK, 90 min; for Papp A→B at 90 min: Apparent permeability coefficient A→B; for Papp B→A at 90 min: Apparent permeability coefficient B→A.
Data set [3] has as its system MDCK cells. Put plainly: MDCK cell permeability test.
Another data set relates to P-gp. Put plainly: MDCK cell permeability test. The note with it: dog, MDCK.
Data set [4] is described as follows: in vitro. The note with it: mouse, liver microsomes, pH 7.47. For orientation: Liver microsomes are a subcellular fraction often used to study metabolism.
Data set [5] can be described thus: in vitro. As to conditions: monkey, microsomes, pH 7.47.
Data set [6] is described as follows: in vitro. As to conditions: dog, microsomes, pH 7.47.
Another data set concerns tubulin. Put plainly: Tubulin polymerization experiment (Cytoskeleton Tubulin Polymerization Assay Kit). The data set is classed as biochemical. How it is done:
The tubulin polymerization experiment is carried out according to the specifications of Tubulin Polymerization Assay Kit of Cytoskeleton Corporation.

Data set [7] is described as follows: Liver microsomal metabolism stability test. The note with it: mouse.
Data set [8] in a line: in vitro. The note with it: human, microsomes, pH 7.47.
In data set [9] the test system is human leukemia (K562) cells. Put plainly: Anti-proliferation test (MTT colorimetry). The data set is classed as cell-based. The note with it: K562, 72 h. How it is done:
(§1) The compound of formula 1 (prepared in embodiment 1), and the compound of formula 2 (prepared in embodiment 2) are given at different concentrations to human hepatocellular carcinoma (HepG2) cells, human prostate carcinoma (PC3) cells, human cervical carcinoma (HeLa) cells, human breast adenocarcinoma (MCF-7) cells, and human leukemia (K562) cells; all the groups are incubated 72 h in an incubator containing 5% of CO2 at 37° C., and then inhabitation ratios of the compounds to the tumor cells are measured by using methyl thiazolyl tetrazolium (MTT) colorimetry, and results are shown in table 1.

Data set [10] relates to human hepatocellular carcinoma (HepG2) cells. Put plainly: Anti-proliferation test (MTT colorimetry). The data set is classed as cell-based. As to conditions: HepG2, 72 h. The method, then: as §1
Data set [11] relates to human cervical carcinoma (HeLa) cells. Put plainly: Anti-proliferation test (MTT colorimetry). In kind it is cell-based. As to conditions: 72 h. The method, then:
as §1

The test system of data set [12] is human prostate carcinoma (PC3) cells. Put plainly: Anti-proliferation test (MTT colorimetry). The data set is classed as cell-based. As to conditions: PC-3, PC3, 72 h. How it is done: as §1
Data set [13] has as its system human breast adenocarcinoma (MCF-7) cells. Put plainly: Anti-proliferation test (MTT colorimetry). The data set is classed as cell-based. The note with it: MCF7, MCF-7, 72 h. How it is done: as §1
A short description of data set [14]: in vitro. As to conditions: rat, microsomes, pH 7.47.
Data set [15] in a line: Liver microsomal metabolism stability test. The note with it: rat, microsomes, pH 7.47.
Setting [16] is: Recovery rate A→B, 2nd line of the compound (condition not given).
The mark [17] stands for this setting: Recovery rate A→B, 1st line of the compound (condition not given; method: without / with 10 μM cyclosporine A).
[18] abbreviates: Recovery rate B→A, 1st line of the compound (condition not given).
Setting [19] is: Recovery rate B→A, 2nd line of the compound (condition not given).
[20] abbreviates: 1st line of the compound (condition not given).
[21] abbreviates: 2nd line of the compound (condition not given).

As for `CC(C)CN(C[C@@H](O)[C@H](Cc1ccccc1)NC(=O)O[C@H]1CCOC1)S(=O)(=O)c1ccc(N)cc1` [Amprenavir, amprenavir, reference compound], the PGP substrate judgment result in the data set on MDCK cells [1] is “Yes”. Also, the recovery at 90 min in data set [2] (setting [16]) came out at 95.4%; in data set [2] (setting [17]), 106%; in data set [2] (setting [18]), 102%; in data set [2] (setting [19]) it was 100%.
By Papp A→B is commonly meant how fast a substance crosses the layer from the apical side. A word on the Papp B→A: it is the apparent permeability from the basolateral to the apical side of a cell layer. The term efflux ratio denotes the permeability from basolateral to apical divided by that in the opposite direction, in the common usage. For orientation: half-life means the time needed for the level to fall by half in the phase considered. Low values mean fast loss, high ones slow loss. Broadly, the microsomal CLint is the rate of metabolic loss divided by the concentration. A high value points to faster metabolism. By IC50 is commonly meant the concentration needed to halve the response being measured. Take `CCOc1cccc(Nc2nn(C)c3c2Cc2cc(OCC)c(OCC(=O)NO)cc2-3)c1` [LL-02]: the Papp A→B at 90 min in data set [2] (setting [20]) came out at 7.4 ×10⁻⁶ cm/s; in [2] (setting [21]), 12.4 ×10⁻⁶ cm/s. Further, the Papp B→A at 90 min was found to be 32.6 ×10⁻⁶ cm/s in data set [2] (setting [20]) and 6.9 ×10⁻⁶ cm/s in data set [2] (setting [21]). Also, the recovery at 90 min in data set [2] (setting [16]) was 59.2%; in data set [2] (setting [17]) it was 89.4%; in data set [2] (setting [18]) it was 91.3%; in [2] (setting [19]), 79.4%. For the same compound, the PGP substrate judgment entry in the data set on MDCK cells [3] (MDCK cells) was “is the PGP substrate and Yes”. Further, in the data set with MDCK cells [3] (MDCK cells), the “Permeability Judgment” value is on record as “moderate permeability”. Further, in the data set with MDCK cells [3] (Papp(B→A)/Papp(A→B), 2nd line of the compound (condition not given)), the Efllux ratio was 0.6. Moreover, the efflux ratio at 90 min with P-gp was 4.4. The half-life at 1 µM in “in vitro [4]” turned out to be 17.8 min; in the data set “in vitro [5]” it was 1.3 min; in the data set “in vitro [6]”, 7.5 min; in “in vitro [8]” it was 12.9 min; in the data set “in vitro [14]”, 24 min. In addition, the microsomal CLint at 1 µM in the data set “in vitro [4]” was determined as 78 µL/min/mg; in “in vitro [5]”, 1070 µL/min/mg; in the data set “in vitro [6]”, 185 µL/min/mg; in “in vitro [8]” it was 108 µL/min/mg; in the data set “in vitro [14]”, 57.7 µL/min/mg. For the same compound, the “inhibition of tubulin polymerization (in words)” value in the data set on tubulin (FIGS. 1 and 2) was “able to inhibit tubulin polymerization”. Besides, the IC50 with tubulin (read-out: tubulin polymerization inhibiting IC50) was 5330 nM; in data set [9], 8.33 nM; in data set [10], 16.4 nM; in [11], 13.2 nM; in data set [12], 23.5 nM; in [13], 3.36 nM. Moreover, the “metabolism in the liver microsomes (in words)” value in data set [7] is listed as “faster”.
`COc1ccc2[nH]c([S+]([O-])Cc3ncc(C)c(OC)c3C)nc2c1` (stereo not shown) [omeprazole, reference compound] had a half-life at 1 µM in data set [15] of 15.7 min. For the same compound, in the data set “in vitro [14]”, the microsomal CLint at 1 µM was 88.3 µL/min/mg.
